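Exposure lasted 48 hours, with cells grown in 96-well plates and compounds tested at five concentrations. GI50: concentration for 50% inhibition of growth. At the TGI there is no net growth.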
Experiments:
Assay in all cases: NCI-60 cell line screen, 48 h; in the data active = GI50 below about 0.43 µM; inactive = the rest
[1] = test system: MDA-MB-435
[2] = test system: HS 578T breast
[3] = test system: NCI-H226 lung
[4] = test system: HOP-62 NSCLC
[5] = test system: NCI-H522 lung
[6] = test system: UACC-62 melanoma
[7] = test system: SF-539 CNS
[8] = test system: PC-3 prostate
[9] = test system: U251 CNS
[10] = test system: SK-MEL-2 melanoma
[11] = test system: ACHN renal
[12] = test system: SF-295 CNS
[13] = test system: OVCAR-8 ovarian
[14] = test system: MALME-3M melanoma
[15] = test system: OVCAR-4 ovarian
[16] = test system: MCF7 breast
[17] = test system: COLO 205 colon
[18] = test system: DU-145 prostate
[19] = test system: HT29 colon
[20] = test system: A549 NSCLC
[21] = test system: HCC-2998 colon
[22] = test system: IGROV1 ovarian
[23] = test system: OVCAR-3 ovarian
[24] = test system: NCI-H460 lung
[25] = test system: A498 renal
[26] = test system: UACC-257 melanoma
[27] = test system: SNB-19 CNS
[28] = test system: SF-268 CNS
[29] = test system: RXF 393 renal
[30] = test system: HL-60(TB) leukemia
[31] = test system: UO-31 renal
[32] = test system: OVCAR-5 ovarian
[33] = test system: HCT-15 colon
[34] = test system: BT-549 breast
[35] = test system: SK-MEL-5 melanoma
[36] = test system: MDA-MB-231 breast
[37] = test system: HOP-92 NSCLC
[38] = test system: NCI/ADR-RES ovarian
[39] = test system: CAKI-1 renal
[40] = test system: K-562 leukemia
[41] = test system: EKVX NSCLC
[42] = test system: LOX IMVI melanoma
[43] = test system: 786-0 renal
[44] = test system: TK-10 renal
[45] = test system: KM12 colon
[46] = test system: SK-MEL-28 melanoma
[47] = test system: RPMI-8226 leukemia
[48] = test system: SN12C renal
[49] = test system: MDA-N
[50] = test system: SK-OV-3 ovarian
[51] = test system: CCRF-CEM leukemia
[52] = test system: HCT-116 colon
[53] = test system: MOLT-4 leukemia
[54] = test system: SNB-75 CNS
[55] = test system: NCI-H23 lung
[56] = test system: M14 melanoma
[57] = test system: SW-620 colon
[58] = test system: T-47D breast
[59] = test system: SR leukemia

O=C(c1ccccc1F)c1c(NCc2ccccc2)c(=O)c1=O
> 100 µM: TGI [1] | TGI [2] | TGI [3] | TGI [4] | TGI [5] | TGI [6] | TGI [7] | TGI [8] | TGI [9] | TGI [10] | TGI [11] | TGI [12] | TGI [13] | TGI [14] | TGI [15] | TGI [16] | TGI [17] | TGI [18] | TGI [19] | TGI [20] | TGI [21] | TGI [22] | TGI [23] | TGI [24] | TGI [25] | TGI [26] | TGI [27] | TGI [28] | TGI [29] | TGI [30] | TGI [31] | TGI [32] | TGI [33] | TGI [34] | TGI [35] | TGI [36] | TGI [37] | TGI [38] | TGI [39] | TGI [40] | TGI [41] | TGI [42] | TGI [43] | TGI [44] | TGI [45] | TGI [46] | TGI [47] | TGI [48] | TGI [49] | TGI [50] | TGI [51] | TGI [52] | TGI [53] | TGI [54] | TGI [55] | TGI [56] | TGI [57]

COc1ccccc1Cn1cc2c(c1)-c1oncc1CC2
39 µM: TGI [9]
23.1 µM: TGI [42]
97.9 µM: TGI [15]
4.75 µM: TGI [24]
8.44 µM: TGI [50]
> 33.5 µM: TGI [40]
42.7 µM: TGI [31]
5.08 µM: TGI [5]
> 55.8 µM: TGI [39]
3.44 µM: TGI [25]
3.4 µM: TGI [18]
> 74.1 µM: TGI [32]
11.7 µM: TGI [19]
6.77 µM: TGI [35]
> 75.1 µM: TGI [28]
> 63.6 µM: TGI [26]
inactive: GI50 [3] 6.99 µM | GI50 [4] 1.02 µM | GI50 [5] 1.22 µM | GI50 [6] 1.11 µM | GI50 [7] 0.453 µM | GI50 [8] 2.01 µM | GI50 [9] 0.503 µM | GI50 [10] 4.43 µM | GI50 [11] 2.12 µM | GI50 [13] 1.92 µM | GI50 [14] 1.41 µM | GI50 [15] 3.86 µM | GI50 [17] 0.553 µM | GI50 [20] 0.825 µM | GI50 [21] 0.873 µM | GI50 [22] 1.84 µM | GI50 [26] 10.4 µM | GI50 [27] 0.625 µM | GI50 [28] 1.21 µM | GI50 [29] 1.31 µM | GI50 [31] 4.28 µM | GI50 [32] 0.756 µM | GI50 [33] 0.535 µM | GI50 [34] 7.5 µM | GI50 [35] 0.45 µM | GI50 [58] 2.15 µM | GI50 [36] 1.34 µM | GI50 [37] 2.75 µM | GI50 [38] 0.529 µM | GI50 [39] 0.545 µM | GI50 [41] 0.83 µM | GI50 [42] 0.946 µM | GI50 [43] 2.44 µM | GI50 [44] 2.67 µM | GI50 [45] 0.435 µM | GI50 [46] 2.52 µM | GI50 [47] 0.454 µM | GI50 [48] 0.728 µM | GI50 [50] 0.46 µM | GI50 [53] 0.477 µM | GI50 [55] 0.8 µM | GI50 [56] 0.549 µM
> 78 µM: TGI [44]
72.7 µM: TGI [10]
> 55.3 µM: TGI [55]
0.545 µM: TGI [1]
57.7 µM: TGI [37]
3.7 µM: TGI [38]
0.888 µM: TGI [23]
3.03 µM: TGI [2]
14.8 µM: TGI [53]
13.6 µM: TGI [52]
3.88 µM: TGI [12]
29.7 µM: TGI [43]
> 41.9 µM: TGI [56]
0.814 µM: TGI [30]
> 61.2 µM: TGI [33]
> 94.2 µM: TGI [41]
2.43 µM: TGI [17]
5.13 µM: TGI [7]
> 78.7 µM: TGI [22]
6.94 µM: TGI [45]
> 75 µM: TGI [20]
9.7 µM: TGI [54]
active: GI50 [1] 0.208 µM | GI50 [2] 0.384 µM | GI50 [12] 0.375 µM | GI50 [16] 0.381 µM | GI50 [18] 0.357 µM | GI50 [19] 0.351 µM | GI50 [23] 0.307 µM | GI50 [24] 0.334 µM | GI50 [25] 0.269 µM | GI50 [30] 0.268 µM | GI50 [59] 0.379 µM | GI50 [40] 0.391 µM | GI50 [51] 0.29 µM | GI50 [52] 0.39 µM | GI50 [54] 0.396 µM | GI50 [57] 0.351 µM
> 100 µM: TGI [3] | TGI [4] | TGI [6] | TGI [8] | TGI [11] | TGI [14] | TGI [27] | TGI [34] | TGI [58] | TGI [36] | TGI [46] | TGI [48] | TGI [57]
> 50.8 µM: TGI [13]
> 66.5 µM: TGI [16]
6.87 µM: TGI [21]
> 21.4 µM: TGI [29]
8.95 µM: TGI [59]

COc1cc(OC)c(CSCC(NC(=O)OCC2c3ccccc3-c3ccccc32)C(=O)O)c(OC)c1 (centres undefined)
> 10 µM: TGI [1] | TGI [3] | TGI [7] | TGI [8] | TGI [9] | TGI [11] | TGI [12] | TGI [13] | TGI [15] | TGI [17] | TGI [18] | TGI [19] | TGI [20] | TGI [22] | TGI [23] | TGI [25] | TGI [27] | TGI [28] | TGI [29] | TGI [31] | TGI [32] | TGI [33] | TGI [35] | TGI [36] | TGI [37] | TGI [38] | TGI [39] | TGI [41] | TGI [44] | TGI [45] | TGI [46] | TGI [48] | TGI [49] | TGI [52] | TGI [54] | TGI [55] | TGI [56] | TGI [57]
